COC(=O)Nc1nc2ccccc2[nH]1
solubility (mole fraction)
Details	278.15 K	283.15 K	288.15 K	293.15 K	298.15 K	303.15 K	308.15 K	313.15 K	318.15 K
in DMF	0.000786	0.000861	0.000931	0.00101	0.0011	0.00119	0.00128	0.00138	0.00148
in ethanol	8.29e-06	1.14e-05	1.66e-05	2.28e-05	3.16e-05	4.28e-05	5.74e-05	7.63e-05	9.98e-05
in methanol	3.23e-05	4.07e-05	5.29e-05	6.59e-05	7.95e-05	9.95e-05	0.000121	0.000147	0.000176
in n-propanol	3.28e-06	4.97e-06	8.18e-06	1.24e-05	1.85e-05	2.73e-05	4.04e-05	5.82e-05	8.34e-05
in water	3.3e-07	4e-07	4.91e-07	6e-07	7.35e-07	8.59e-07	1.02e-06	1.21e-06	1.43e-06

From BigSolDB 2.1
